The values below come from patent US4840658A, “Algicidal composition” (Sumitomo Chemical Company, Limited, priority 1986, dated 1989).

Structures can show the parent of a compound that is named as a salt. Where two headings read alike, the source gives them in different places.

Data set [1] concerns Heterosigma akashiwo. Kind of data set: Effect of unsaturated higher fatty acids on viability of Heterosigma akashiwo (cytolysis). It is filed as cell-based. The conditions noted are these: 0.5 h. The procedure:
Effect of the several unsaturated higher fatty acids on viability of Heterosigma akashiwo.
(§1) Heterosigma akashiwo was incubated in PES medium under 14 hr photoperiod (3000 lux) condition at 20° C. The effects of test compounds were examined on the plankton at exponential growth phase and the medium at the phase generally contained 7×10^4 cells/ml.
(§2) The unsaturated higher fatty acid was accurately weighed and dissolved in benzene. An aliquot of the solution was transferred in a 10 ml volumetric flask. The benzene was removed in vacuo and the residue was dissolved in 0.2 ml of ethanol. A PES medium was added bit by bit to make a 10 ml solution.
(§3) Each of 1 ml of the plankton medium was transferred to the wells of a multi-dish at the cell number of 7×10^4. After good conditions of the plankton were confirmed under an inverted microscope, 1 ml of graded levels of the test solution was mixed. At specified intervals, morphological examination was conducted under the microscope, and effect concentration (EC100 ) was defined as the minimum concentration at which all of the plankton tested were cytolyzed 30 min after introduction of a test material.

For data set [2], the system named is Killifish (Oryzias latipes). Kind of data set: Acute toxicity of unsaturated higher fatty acids to killifish. It is filed as in vivo. The conditions noted are these: adult killifish, 48 hr, 25° C. The procedure: Acute toxicity of the several unsaturated higher fatty acids.
Killifish (Oryzias latipes) at adult stage were acclimated to laboratory conditions in dechlorinated water. Fish were withheld from food for 24 hr prior to the test.
Graded levels of the compounds in 0.5 ml ethanol were added to glass vessels, and then mixed with 100 ml of dechlorinated fresh water. Five fish were introduced to the vessel and maintained for 48 hr at 25° C.
As a solvent control, 0.5% ethanol solution was used.

A further data set has as its system Tetraselmis cordiformis. Kind of data set: Effects of OTA on viability of plankton species. The data set is classed as cell-based. Further details: key: +: 100% cytolysis of planktons after 2 hr; ±: No cytolysis but no movement; -: No effect. The procedure:
as §1, §2, §3
(§4) Effect of 6Z, 9Z, 12Z, 15Z-octadecateraeonic acid (OTA) on viability of several plankton species.
(§5) The test system was the same as in Experiment 1, except test concentration of 5 and 25 ppm and test duration of 48 hr.

The subject of data set [3] is Cricosphaera roscoffensis. Nature of the data set: Effects of OTA on viability of plankton species. The data set is classed as cell-based. Further details: key: +: 100% cytolysis of planktons after 2 hr; ±: No cytolysis but no movement; -: No effect. The procedure:
as §1, §2, §3, §4, §5

Data set [4] relates to marine dinoflagellates (Dinophyceae). Nature of the data set: Algicidal activity against marine dinoflagellates. It is filed as cell-based.
Another data set relates to Skeletonema costatum. Nature of the data set: Effects of OTA on viability of plankton species. It is filed as cell-based. The procedure: as §1, §2, §3, §4, §5
A further data set relates to Prorocentrum micans. Kind of data set: Effects of OTA on viability of plankton species. The data set is classed as cell-based. The procedure: as §1, §2, §3, §4, §5
The subject of a further data set is Olisthodiscus luteus. Nature of the data set: Effects of OTA on viability of plankton species. The data set is classed as cell-based. The procedure:
as §1, §2, §3, §4, §5

Another data set has as its system Oltmannsiella sp. Nature of the data set: Effects of OTA on viability of plankton species. The data set is classed as cell-based. The procedure:
as §1, §2, §3, §4, §5

Another data set deals with Heterocapsa triguetra. Nature of the data set: Effects of OTA on viability of plankton species. It is filed as cell-based. The procedure: as §1, §2, §3, §4, §5
The subject of another data set is Pyraminonas sp. Nature of the data set: Effects of OTA on viability of plankton species. The data set is classed as cell-based. The procedure: as §1, §2, §3, §4, §5
The subject of a further data set is Chattonella antiqua. Kind of data set: Effects of OTA on viability of plankton species. The data set is classed as cell-based. The procedure:
as §1, §2, §3, §4, §5

Another data set has as its system Chlamydomonas sp. Nature of the data set: Effects of OTA on viability of plankton species. The data set is classed as cell-based. The procedure: as §1, §2, §3, §4, §5
The test system of a further data set is Chaetoceros debile. Kind of data set: Effects of OTA on viability of plankton species. It is filed as cell-based. The procedure: as §1, §2, §3, §4, §5
The test system of data set [5] is Heterosigma akashiwo. Kind of data set: Effects of OTA on viability of plankton species. It is filed as cell-based. The procedure: as §1, §2, §3, §4, §5
The test system of the next data set is Chattonella marina. Nature of the data set: Effects of OTA on viability of plankton species. The data set is classed as cell-based. The procedure:
as §1, §2, §3, §4, §5

The subject of another data set is Eutreptia sp. Nature of the data set: Effects of OTA on viability of plankton species. It is filed as cell-based. The procedure: as §1, §2, §3, §4, §5
The test system of another data set is Nephroselmis sp. Kind of data set: Effects of OTA on viability of plankton species. The data set is classed as cell-based. The procedure:
as §1, §2, §3, §4, §5

Another data set concerns Gymnodinium sanguineum. Kind of data set: Effects of OTA on viability of plankton species. The data set is classed as cell-based. The procedure: as §1, §2, §3, §4, §5
For a further data set, the system named is Pterosperma cristatum. Kind of data set: Effects of OTA on viability of plankton species. It is filed as cell-based. The procedure:
as §1, §2, §3, §4, §5

The next data set has as its system Stephanopyris palmeriana. Kind of data set: Effects of OTA on viability of plankton species. It is filed as cell-based. The procedure: as §1, §2, §3, §4, §5
The next data set relates to Hafniomonas reticulata. Nature of the data set: Effects of OTA on viability of plankton species. The data set is classed as cell-based. The procedure:
as §1, §2, §3, §4, §5

The subject of the next data set is Gymnodinium nagasakiense. Nature of the data set: Effects of OTA on viability of plankton species. The data set is classed as cell-based. The procedure: as §1, §2, §3, §4, §5
In a further data set the test system is Cryptomonas sp. Kind of data set: Effects of OTA on viability of plankton species. The data set is classed as cell-based. The procedure: as §1, §2, §3, §4, §5
Where [6] appears, read: minimum concentration at which all plankton cytolyzed 30 min after introduction, read-out: EC100.

`CCC=CCC=CCC=CCC=CCC=CCCCC(=O)O` [5,8, 11, 14, 17-eicosapentaenoic acid]: the EC100 in the data set on Heterosigma akashiwo [1] (setting [6]) came to 2.5 µg/mL. Further, in data set [2], the LC100 is more than 30 ppm and the “Maximum no effect concentration” value is listed as less than 25 ppm.
For the compound `CCC=CCC=CCC=CCC=CCC=CCCCC(=O)O` [Na salt of 5, 8, 11, 14, 17-eicosapentaenoic acid], in [2], the LC100 was more than 50 ppm and the “Maximum no effect concentration” value was less than 30 ppm.
Consider `CC/C=C\C/C=C\C/C=C\C/C=C\CCCCC(=O)O` [OTA, 6Z, 9Z, 12Z, 15Z-octadecatetraenoic acid], for which the Effect on viability result in the data set with Tetraselmis cordiformis (5 ppm) is listed as “±”; in the data set with Tetraselmis cordiformis (25 ppm) it was “±”; in [3] (5 ppm), “±”; in data set [3] (25 ppm) it was “±”; with Skeletonema costatum (5 ppm) it was “+ (100% cytolysis of planktons after 2 hr)”; in the data set on Skeletonema costatum (25 ppm) it was “+ (100% cytolysis of planktons after 2 hr)”. Also, the Effect on viability result with Prorocentrum micans (5 ppm), with Prorocentrum micans (25 ppm), in the data set on Olisthodiscus luteus (5 ppm), in the data set on Olisthodiscus luteus (25 ppm), in the data set with Oltmannsiella sp. (5 ppm) and with Oltmannsiella sp. (25 ppm) was “+ (100% cytolysis of planktons after 2 hr)” each time. Besides, the Effect on viability entry with Heterocapsa triguetra (5 ppm), in the data set with Heterocapsa triguetra (25 ppm), in the data set with Pyraminonas sp. (5 ppm), with Pyraminonas sp. (25 ppm), in the data set with Chattonella antiqua (5 ppm) and in the data set with Chattonella antiqua (25 ppm) was “+ (100% cytolysis of planktons after 2 hr)” throughout. The Effect on viability entry in the data set on Chlamydomonas sp. (5 ppm), in the data set on Chlamydomonas sp. (25 ppm), in the data set with Chaetoceros debile (5 ppm), in the data set with Chaetoceros debile (25 ppm), with Heterosigma akashiwo [5] (5 ppm) and in the data set on Heterosigma akashiwo [5] (25 ppm) was “+ (100% cytolysis of planktons after 2 hr)” in each case. Moreover, the Effect on viability result with Chattonella marina (5 ppm), in the data set with Chattonella marina (25 ppm), in the data set with Eutreptia sp. (5 ppm), with Eutreptia sp. (25 ppm), in the data set on Nephroselmis sp. (5 ppm) and in the data set on Nephroselmis sp. (25 ppm) was “+ (100% cytolysis of planktons after 2 hr)” in each case. The Effect on viability entry in the data set on Gymnodinium sanguineum (5 ppm), with Gymnodinium sanguineum (25 ppm), with Pterosperma cristatum (5 ppm), in the data set on Pterosperma cristatum (25 ppm), in the data set with Stephanopyris palmeriana (5 ppm) and with Stephanopyris palmeriana (25 ppm) was “+ (100% cytolysis of planktons after 2 hr)” each time. Besides, the Effect on viability entry in the data set with Hafniomonas reticulata (5 ppm), in the data set on Hafniomonas reticulata (25 ppm), in the data set on Gymnodinium nagasakiense (5 ppm), in the data set on Gymnodinium nagasakiense (25 ppm), in the data set on Cryptomonas sp. (5 ppm) and with Cryptomonas sp. (25 ppm) was “+ (100% cytolysis of planktons after 2 hr)” in each case. Also, in the data set on Heterosigma akashiwo [1] (setting [6]), the EC100 is 2.5 µg/mL. In addition, in [4], the algicidal activity result was “strong algicidal activity”. In [2], this compound displayed an LC100 of more than 25 ppm. The “Maximum no effect concentration” value in data set [2] is on record as less than 20 ppm.
In turn, `CCCCC/C=C\C/C=C\C/C=C\C/C=C\CCCC(=O)O` [arachidonic acid] had an EC100 in the data set on Heterosigma akashiwo [1] of 2.5 µg/mL.
Turning to `CCCCC/C=C\C/C=C\CCCCCCCC(=O)O` [linoleic acid], the EC100 in the data set on Heterosigma akashiwo [1] (setting [6]) came to 25 µg/mL.
Compound `CCCCCCCC/C=C\CCCCCCCC(=O)O` [oleic acid] returned an EC100 in the data set with Heterosigma akashiwo [1] of 70 to 80 µg/mL.
In the case of `CC/C=C\C/C=C\C/C=C\CCCCCCCC(=O)[O-].[Na+]` [sodium linolenate], in data set [2], the LC100 is more than 150 ppm and the “Maximum no effect concentration” value is on record as less than 100 ppm.
For the compound `CCCCC/C=C\C/C=C\C/C=C\CCCCC(=O)O` [γ-linolenic acid], the EC100 in the data set with Heterosigma akashiwo [1] (setting [6]) was determined as 25 µg/mL. In addition, in data set [2], the LC100 is more than 50 ppm and the “Maximum no effect concentration” value was less than 40 ppm.
